According to article PMC6491934 (Frontiers in Microbiology, 2019):
Where two headings read alike, the source gives them in different places.

Key:
PrtP [1] = test: proteinase extract of BGMN1-501 cells in 0.1 mol/L sodium phosphate buffer (NaPi, pH 7); settings: Lactococcus lactis subsp. lactis BGMN1-501, up to 20 h
PrtP [2] = test: culture of Lactococcus lactis subsp. lactis BGMN1-501 in chemically defined growth medium (CDM) with addition of 0.5% casitone; cell-free supernatant; settings: Lactococcus lactis subsp. lactis BGMN1-501, 30°C, up to 16 h
[3] = system: Lactococcus lactis subsp. lactis BGMN1-596; test: Spot-on-lawn bacteriocin activity assay; assay type: cell-based; settings: sensitive strain BGMN1-596, 30°C overnight
Experimental: The activity of HPLC-obtained fractions and of chemically synthesized bacteriocin was evaluated by spot-on-lawn assays. Soft GM17 agar (0.75%, w/v) containing sensitive strain was overlaid onto thin GM17 agar plates. After soft agar solidified, 10 μL of sample was spotted and plates were incubated at 30°C overnight. Clear zones of growth inhibition in the spots were used as positive signals. Lactococcus lactis subsp. lactis BGMN1-596 was used in all tests as sensitive strain.

proteinase PrtP [4] = assay type: in vitro ADME, Lactococcus lactis subsp. lactis BGMN1-501
Experimental: Bacteriocin activity of BGMN1-501, as well as of recombinantly produced bacteriocin was evaluated by an agar-well diffusion test ([Lozo et al., 2004]). The activity of HPLC-obtained fractions and of chemically synthesized bacteriocin was evaluated by spot-on-lawn assays. Soft GM17 agar (0.75%, w/v) containing sensitive strain was overlaid onto thin GM17 agar plates. After soft agar solidified, 10 μL of sample was spotted and plates were incubated at 30°C overnight. Clear zones of growth inhibition in the spots were used as positive signals. Lactococcus lactis subsp. lactis BGMN1-596 was used in all tests as sensitive strain. Proteinase extract was prepared as following: BGMN1-501 was grown on milk citrate agar plates, collected and re-suspended in 0.1 mol/L sodium phosphate buffer (NaPi, pH 7), incubated at room temperature for 30 min, pelleted by centrifugation and supernatants were collected prior to reactions. In vitro testing of effect of proteinase extract on bacteriocin activity was done as previously described ([Vukotic et al., 2015]), except that recombinant bacteriocins were used as substrates in the reactions.

proteinase PrtP [5] = assay type: in vitro ADME, Lactococcus lactis subsp. lactis BGMN1-501; remark: listed apart in the source
Experimental: For the purification and mass spectrometric analysis of the bacteriocin in Lactococcus lactis subsp. lactis BGMN1-501, the strain was grown at 30°C for 16 h in 500 mL of chemically defined growth medium (CDM)with addition of 0.5% casitone (Difco Laboratories, Becton Dickinson and Company, Franklin Lakes, NJ, United States). The bacteriocin was purified following the protocol of [Mirkovic et al. (2016)]. Briefly, the cells were removed by centrifugation (4,500 × g for 30 min at 4°C), while the supernatant was saturated up to 40% with ammonium sulfate, and precipitated with stirring for 2 h at 4°C. The precipitate was collected by centrifugation (10,000 × g for 30 min at 4°C) and then dissolved in 5 mL of Milli-Q water containing 0.1% trifluoroacetic acid. The bacteriocin was further purified using reverse-phase high-performance liquid chromatography (HPLC). […] The chromatography was monitored by measuring absorbance at 215 nm. […] Both recombinant peptides and the reaction mixtures of LcnB and PrtP were analyzed using the same reverse-phase chromatography as used for bacteriocin purification (see Section “Bacteriocin LcnB Purification From Lactococcus lactis subsp. lactis BGMN1-501”).

BGMN1-596 = test: Glucose-uptake inhibition assay (growth of BGMN1-596 in GM17); assay type: cell-based, Lactococcus lactis subsp. lactis; settings: chemically synthetized LcnB^∗, 0–1,000 μg/mL (highest concentration), BGMN1-596 5% inoculum in GM17, OD 600 nm over 6 h, triplicate
Experimental: To test whether truncated peptide can interfere with glucose import, growth of BGMN1-596 in GM17 with added LcnB^∗ was monitored. Fresh overnight culture, grown in GM17, was inoculated at 5% to fresh media, and saturated with increased concentrations (0–1,000 μg/mL) of chemically synthetized LcnB^∗. As a control, the same inoculum was made in media without glucose. Bacterial growth was monitored in microtitar plates by OD measurement at 600 nm at different time points for 6h. The assay was done in triplicate.

[6] = system: LcnB receptor on sensitive BGMN1-596 cells (man-PTS); test: Bacteriocin competition assay; assay type: cell-based, Lactococcus lactis subsp. lactis; settings: 10 μL of 62.5–1,000 μg/mL LcnB^∗ adsorbed 30 min at room temperature, then 50 μL BGMN1-501 culture, overnight 30°C
Experimental: The possibility of truncated peptide LcnB^∗ to compete with wild type LcnB for binding to its receptor molecule was tested in bacteriocin competition assay. Bacteriocin assay was prepared, as explained above. Before addition of bacteriocin producer, 10 μL of increasing concentrations (62.5–1,000 μg/mL) of LcnB^∗ was added to the wells made in soft agar and left for 30 min at room temperature to be completely adsorbed. After that, 50 μL of fresh BGMN1-501 culture was added to the wells, and incubated overnight at 30°C to produce growth inhibition zones.

Row | Sequence | cleaved bond (PrtP [1]) | cleaved bond (PrtP [2]) | antimicrobial activity (growth inhibition zone) ([3]; chemically synthesized peptide (Biomatik), 10 μL spotted, up to 1 mg/mL) | antimicrobial activity (growth inhibition zone) ([3]; recombinant peptide (pMAL system, E. coli ER2523), 50–500 μg/mL) | bacteriocin activity after incubation with PrtP extract (proteinase PrtP [4]) | bacteriocin activity after incubation with PrtP extract (proteinase PrtP [4]; pH 7) | PrtP cleavage site in the peptide (proteinase PrtP [5]) | amount of peptide left after PrtP hydrolysis (proteinase PrtP [5]) | effect on bacterial growth (interference with glucose import) (BGMN1-596) | effect of pretreatment on bacteriocin activity of wild type LcnB (competition for the receptor) [6]
1 | SLQYVMSAGPYTWYKDTRTGKTICKQTIDTASYTFGVMAEGWGKTFH | methionine6-serine7, major, 3 h | methionine6-serine7 |  |  |  |  |  |  |  | 
2 | SLQYVMSAGPYTWYKDTRTGKTICKQTIDTASYTFGVMAEGWGKTFH [LcnB, bacteriocin of Lactococcus lactis subsp. lactis BGMN1-501, mature peptide, produced recombinantly in E. coli ER2523] |  |  | inactive | strong antimicrobial activity | no activity could be detected | reduced the bacteriocin activity | between sixth and seventh amino acid | drastically reduced | did not alter bacterial growth | did not influence the latter bacteriocin activity of wild type molecule
